One may read the Ki as a dissociation constant, usually derived from enzyme kinetics or from competition with a known ligand. A lower Ki goes with higher affinity.

Ki data for one compound are collected here from PubChem BioAssay AID2128 (The Scripps Research Institute Molecular Screening Center, 2009).

For the assay, the target named is Beta-lactamase (Pseudomonas aeruginosa) (UniProt Q932Y6). In words: Ki and modality of VIM-2 inhibitors – biochemical, probe results, mechanism study, late-stage follow-up (AID 2128). Particulars: purified enzyme, nitrocefin hydrolysis absorbance/fluorescence, enzyme assay, VIM-2 inhibition constant, kinetics.

`O=c1[nH]c2c(s1)C(c1cccnc1)C1C3CCC(C3)C1S2` (stereo unspecified) came in with an inhibitory constant (Ki) of 148 nM.
